What was measured:
Settings in all cases: 72 h
[1] = system: U2OS; assay: cell viability relative to DMSO; higher = less toxic
[2] = system: Vero E6; assay: as above
[3] = system: Calu-3; assay: as above
[4] = system: HepG2; assay: as above
[5] = system: Caco-2; assay: as above
[6] = system: U2OS; assay: drug sensitivity score (DSS) for viability; higher = more toxic; extreme values may be limits of the assay
[7] = system: Vero E6; assay: as above
[8] = system: Calu-3; assay: as above
[9] = system: HepG2; assay: as above
[10] = system: Caco-2; assay: as above
[11] = system: U2OS; assay: relative viability EC50 (midpoint between 100% and the lowest measured viability); higher = less toxic
[12] = system: Vero E6; assay: as above
[13] = system: Calu-3; assay: as above
[14] = system: HepG2; assay: as above
[15] = system: Caco-2; assay: as above

| SMILES | cell viability ([1]; 1 nM) | cell viability ([1]; 10 nM) | cell viability ([1]; 100 nM) | cell viability ([1]; 1000 nM) | cell viability ([1]; 10000 nM) | cell viability ([2]; 1 nM) | cell viability ([2]; 10 nM) | cell viability ([2]; 100 nM) | cell viability ([2]; 1000 nM) | cell viability ([2]; 10000 nM) | cell viability ([3]; 1 nM) | cell viability ([3]; 10 nM) | cell viability ([3]; 100 nM) | cell viability ([3]; 1000 nM) | cell viability ([3]; 10000 nM) | cell viability ([4]; 1 nM) | cell viability ([4]; 10 nM) | cell viability ([4]; 100 nM) | cell viability ([4]; 1000 nM) | cell viability ([4]; 10000 nM) | cell viability ([5]; 1 nM) | cell viability ([5]; 10 nM) | cell viability ([5]; 100 nM) | cell viability ([5]; 1000 nM) | cell viability ([5]; 10000 nM) | drug sensitivity score [6] | drug sensitivity score [7] | drug sensitivity score [8] | drug sensitivity score [9] | drug sensitivity score [10] | relative viability EC50 [11] | relative viability EC50 [12] | relative viability EC50 [13] | relative viability EC50 [14] | relative viability EC50 [15] |
| --- | --- | --- | --- | --- | --- | --- | --- | --- | --- | --- | --- | --- | --- | --- | --- | --- | --- | --- | --- | --- | --- | --- | --- | --- | --- | --- | --- | --- | --- | --- | --- | --- | --- | --- | --- |
| CC(C)OC(=O)[C@H](C)N[P@@](=O)(OC[C@H]1O[C@@H](n2ccc(=O)[nH]c2=O)[C@](C)(F)[C@@H]1O)Oc1ccccc1 [PSI-7976] | 98.2% | 93.6% | 101% | 99% | 96.8% | 95.2% | 101% | 91.4% | 99% | 108% | 104% | 85.4% | 96.7% | 93.3% | 94.2% | 89.5% | 103% | 92.6% | 109% | 113% | 105% | 88.7% | 103% | 90.2% | 101% | 0 | 0 | 0 | 0 | 0 | > 10 µM | > 10 µM | > 10 µM | > 10 µM | > 10 µM |
| O=C1NC(=S)NC(=O)C1C(=O)Nc1ccccc1 [merbarone] | 93.9% | 96.3% | 97.4% | 103% | 104% | 100% | 91.6% | 93.9% | 92.7% | 106% | 99.3% | 100% | 105% | 106% | 110% | 104% | 87.2% | 100% | 99.8% | 102% | 94.7% | 93.3% | 103% | 94% | 94.5% | 0 | 0 | 0 | 0 | 0 | > 10 µM | > 10 µM | > 10 µM | > 10 µM | > 10 µM |
| COc1ccc(CNCc2cccc3ccccc23)cc1 [ML133] | 104% | 94.9% | 100% | 98.9% | 97.5% | 91.2% | 100% | 94.1% | 99% | 101% | 101% | 101% | 102% | 104% | 94.6% | 97.8% | 108% | 101% | 110% | 112% | 92.5% | 95.6% | 98.5% | 99.9% | 88.3% | 0 | 0 | 0 | 0 | 0 | > 10 µM | > 10 µM | > 10 µM | > 10 µM | > 10 µM |
| CC(O)CC(=O)O (stereo not drawn) [beta-hydroxybutyrate] | 94.6% | 95.1% | 99.3% | 97.8% | 101% | 97.6% | 95.3% | 93.3% | 97.1% | 114% | 99.2% | 106% | 100% | 96.9% | 94.5% | 90.5% | 96.2% | 101% | 99.7% | 99% | 114% | 99.4% | 122% | 104% | 103% | 0 | 0 | 0 | 0 | 0 | > 10 µM | > 10 µM | > 10 µM | > 10 µM | > 10 µM |
| C[C@@H]1O[C@@H]1P(=O)(O)O [FOSFOMYCIN CALCIUM] | 103% | 97.9% | 103% | 98.8% | 102% | 105% | 101% | 98.7% | 99.2% | 100% | 100% | 104% | 97.7% | 97.5% | 94.9% | 97.6% | 101% | 94.8% | 111% | 97.3% | 97.3% | 94.5% | 94.4% | 94.1% | 101% | 0 | 0 | 0 | 0 | 0 | > 10 µM | > 10 µM | > 10 µM | > 10 µM | > 10 µM |
| Cc1ccccc1OCC(O)CO (stereo not given) [mephenesin] | 101% | 96.8% | 104% | 97.1% | 100% | 110% | 103% | 99.6% | 102% | 98.4% | 111% | 91.1% | 103% | 101% | 106% | 107% | 113% | 109% | 102% | 99.8% | 90.8% | 96.5% | 94.4% | 93.1% | 92.7% | 0 | 0 | 0 | 0 | 0 | > 10 µM | > 10 µM | > 10 µM | > 10 µM | > 10 µM |
| CCN(CC)CCOc1ccc(Cc2ccccc2)cc1 [DPPE] | 98.8% | 104% | 100% | 104% | 96.5% | 108% | 103% | 107% | 103% | 96% | 96% | 89.7% | 100% | 101% | 96.6% | 112% | 98.4% | 107% | 91.2% | 94.4% | 100% | 101% | 96.7% | 105% | 84.6% | 0 | 0 | 0 | 0 | 0.1 | > 10 µM | > 10 µM | > 10 µM | > 10 µM | > 10 µM |
| O=C(Oc1ccccc1)c1ccccc1O [phenyl-salicylate] | 97.7% | 100% | 97.5% | 102% | 99.4% | 105% | 99.8% | 105% | 98.4% | 104% | 103% | 101% | 93.6% | 104% | 94.9% | 100% | 104% | 97.1% | 110% | 106% | 95.3% | 93.7% | 98.1% | 97.1% | 97.6% | 0 | 0 | 0 | 0 | 0 | > 10 µM | > 10 µM | > 10 µM | > 10 µM | > 10 µM |
| COc1ccc2cccc(N3CCN(CCNC(=O)c4ccc(F)cc4)CC3)c2c1 | 95.7% | 103% | 92.7% | 96.4% | 90.4% | 103% | 104% | 97.5% | 94% | 89.3% | 96.6% | 105% | 104% | 106% | 83% | 99.2% | 98.9% | 97.4% | 95.4% | 89.5% | 98.3% | 95.3% | 98.3% | 90.6% | 86.2% | 0 | 0 | 0.2 | 0 | 0.3 | > 10 µM | > 10 µM | > 10 µM | > 10 µM | > 10 µM |
| COc1c(C)cnc(Cn2cnc3c(Cl)nc(N)nc32)c1C [BIIB021] | 99.4% | 99.4% | 93.3% | 27.7% | 4.4% | 101% | 104% | 103% | 51.8% | 36.7% | 102% | 109% | 105% | 49.4% | 39.4% | 94% | 100% | 60.8% | 1.5% | 0.6% | 91% | 101% | 92.8% | 65.8% | 39.5% | 14.5 | 9.1 | 9.3 | 23.1 | 7.5 | 0.495 µM | 0.633 µM | 0.538 µM | 0.12 µM | 0.746 µM |
| CCOC(=O)c1ccc(N(C)c2csc(-c3ccccc3)n2)cc1 [neuropathiazol] | 101% | 97.2% | 98.8% | 99.5% | 99.3% | 108% | 103% | 96.2% | 101% | 96.3% | 92.4% | 97.2% | 108% | 110% | 97.3% | 86.2% | 97.3% | 103% | 107% | 93.2% | 92.9% | 94.1% | 80.2% | 97.3% | 104% | 0 | 0 | 0 | 0 | 0 | > 10 µM | > 10 µM | > 10 µM | > 10 µM | > 10 µM |
| CC1CC(OC(=O)C(O)c2ccccc2)CC(C)(C)C1 (stereo not given) [cyclandelate] | 97.2% | 103% | 97.5% | 102% | 97.5% | 97.8% | 99.1% | 100% | 96.7% | 94.9% | 95.9% | 90.2% | 102% | 95.5% | 99% | 103% | 91.9% | 100% | 96.3% | 98.3% | 91.5% | 105% | 94.3% | 105% | 108% | 0 | 0 | 0 | 0 | 0 | > 10 µM | > 10 µM | > 10 µM | > 10 µM | > 10 µM |
| Cc1cccc(C)c1OCC(=O)N[C@@H](Cc1ccccc1)[C@@H](O)C[C@H](Cc1ccccc1)NC(=O)[C@H](C(C)C)N1CCCNC1=O [lopinavir] | 101% | 107% | 100% | 101% | 93.3% | 103% | 99.1% | 104% | 101% | 110% | 103% | 90.1% | 97.3% | 102% | 104% | 107% | 106% | 108% | 104% | 86.5% | 90.9% | 102% | 102% | 93.9% | 84.8% | 0 | 0 | 0 | 0.1 | 0.7 | > 10 µM | > 10 µM | > 10 µM | > 10 µM | > 10 µM |
| Cc1ccc(-n2sc(=O)n(Cc3ccc(F)cc3)c2=O)cc1 | 97.9% | 98.7% | 99.6% | 96.1% | 108% | 96.4% | 97.7% | 97.1% | 99.1% | 93.5% | 104% | 83.1% | 110% | 98.9% | 94.3% | 89.2% | 107% | 95.9% | 96.1% | 96.1% | 99.1% | 97.7% | 98.4% | 100% | 95.9% | 0 | 0 | 0 | 0 | 0 | > 10 µM | > 10 µM | > 10 µM | > 10 µM | > 10 µM |
